Blank lines part the entries; values can stand above or below the compound they belong to. The source made the active and inactive calls.
How the values were obtained:
[1] = biological target: Histone-lysine N-methyltransferase NSD2 (Homo sapiens, UniProt O96028); format: biochemical
[2] = viability loss in human Jurkat cells – cell-based, luminescence, cytotoxicity control for P. falciparum gametocyte viability project, dose response (AID 1117277); format: functional;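 note: potency reflects loss of cellular ATP meaning fewer viable cells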
[3] = viability inhibitors of stage V gametocytes – luminescence, dose response (AID 1117278); format: functional, cell-based;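 note: gametocytes exposed to compound for 24 hours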
[4] = T. cruzi growth inhibition in host cells, dose response, cell-based, plate reader, dry powder, set 2 (AID 652275); format: functional
14-3-3 protein gamma = 14-3-3 protein gamma (Homo sapiens, UniProt P61981); test: modulators of 14-3-3 gamma client binding – dose response (AID 711); format: functional
[5] = Dd2 parasite growth inhibition in erythrocytes – SYBR Green, dry powder samples, set 9, dose response (AID 1159568); format: functional, cell-based
Estrogen receptor beta [6] = biological target: T1, Estrogen receptor beta (Homo sapiens, UniProt Q92731); test: blockers of SRC-3 recruitment to ERβ – biochemical, ELISA, streptavidin-HRP readout, orthogonal assay, confirmation (AID 1060)
Estrogen receptor beta [7] = biological target: T1, Estrogen receptor beta
Estrogen receptor = biological target: T2, Estrogen receptor (Homo sapiens, UniProt P03372);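 note: potency for inhibiting coactivator peptide recruitment to the receptor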
T2 sequence (P03372 whole entry): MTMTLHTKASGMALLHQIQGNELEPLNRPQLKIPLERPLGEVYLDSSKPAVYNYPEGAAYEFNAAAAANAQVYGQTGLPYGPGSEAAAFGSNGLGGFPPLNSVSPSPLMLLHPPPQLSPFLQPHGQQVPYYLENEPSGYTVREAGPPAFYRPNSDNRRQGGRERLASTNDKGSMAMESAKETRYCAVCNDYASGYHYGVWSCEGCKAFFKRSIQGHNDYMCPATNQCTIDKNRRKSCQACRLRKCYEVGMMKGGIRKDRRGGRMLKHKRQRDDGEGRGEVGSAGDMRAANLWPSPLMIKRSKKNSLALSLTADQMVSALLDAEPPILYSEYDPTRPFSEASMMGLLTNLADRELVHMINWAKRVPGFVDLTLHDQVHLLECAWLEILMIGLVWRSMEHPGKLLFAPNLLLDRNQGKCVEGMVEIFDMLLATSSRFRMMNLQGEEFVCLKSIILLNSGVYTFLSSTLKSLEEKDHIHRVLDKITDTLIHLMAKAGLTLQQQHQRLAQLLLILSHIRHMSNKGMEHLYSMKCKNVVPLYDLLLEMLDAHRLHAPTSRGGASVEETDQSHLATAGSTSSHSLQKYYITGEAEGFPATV

cells [8] = test: cells
[9] = biological target: Mitogen-activated protein kinase 10 (Homo sapiens, UniProt P53779); test: Dose response biochemical screening assay for inhibitors of c-Jun N-Terminal Kinase 3 (JNK3). [Related pubchem assays: 746 ]
[10] = biological target: RNA-editing ligase 1, mitochondrial (Trypanosoma brucei brucei, UniProt P86926); test: inhibition of trypanosome RNA editing ligase – biochemical, fluorescence, Trypanosoma brucei, dose response (AID 1117295); format: functional
[11] = viability loss in HepG2 hepatoma cells – cell-based, cherry-picks, set 5, cytotoxicity control, dose response (AID 1053118); format: functional
[12] = biological target: NAD-dependent protein deacylase sirtuin-5, mitochondrial (Homo sapiens, UniProt Q9NXA8); test: sirtuin-5 deacylation blockers, concentration series – biochemical, fluorescence imaging, cherry-pick, set 5, dose response (AID 720591);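 note: desuccinylation of succinyl peptide AMC substrate read as fluorescence after trypsin release; potency of inhibitors that lower fluorescence and may act on trypsin instead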
INS1 = test: INS-1E survival protection against cytokine death – cell-based, luminescence, retest, dose response (AID 449756); format: functional; settings: Rattus norvegicus;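 note: cell death triggered by IL-1 beta plus TNF-alpha plus IFN-gamma mixture; protective hits raise ATP signal compared with cytokine alone wells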
[13] = NIH3T3 cell viability loss – ATP luminescence, mouse fibroblasts, counter-screen, dose response (AID 2010); format: functional, cell-based;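 note: cells exposed to compound for about 90 hours before reading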
[14] = Trypanosoma cruzi growth suppression in host cells – NIH3T3 host cells, beta-gal luminescence, confirmation (AID 2044); format: functional, cell-based;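 note: intracellular parasites grown in NIH/3T3 mouse fibroblasts as host cells; luminescent beta-galactosidase reporter signal from transgenic T. cruzi replicating inside host cells; inhibitors lower the luminescence signal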
cells [15] = test: cells; remark: listed apart in the source
Kallikrein-7 = Kallikrein-7 (Homo sapiens, UniProt P49862); test: Fluorescence Intensity-based biochemical primary high throughput dose response assay to identify activators of kallikrein-7 (K7) zymogen.
Chain of Kallikrein-7 (P49862 whole entry): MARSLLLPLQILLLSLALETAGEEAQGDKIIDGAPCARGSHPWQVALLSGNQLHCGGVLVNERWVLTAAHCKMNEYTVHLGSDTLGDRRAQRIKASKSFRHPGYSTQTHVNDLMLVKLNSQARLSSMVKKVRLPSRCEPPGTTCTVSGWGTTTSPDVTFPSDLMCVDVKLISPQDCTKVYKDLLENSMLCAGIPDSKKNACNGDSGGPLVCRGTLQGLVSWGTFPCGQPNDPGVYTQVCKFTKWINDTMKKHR

T1 sequence (Q92731 whole entry): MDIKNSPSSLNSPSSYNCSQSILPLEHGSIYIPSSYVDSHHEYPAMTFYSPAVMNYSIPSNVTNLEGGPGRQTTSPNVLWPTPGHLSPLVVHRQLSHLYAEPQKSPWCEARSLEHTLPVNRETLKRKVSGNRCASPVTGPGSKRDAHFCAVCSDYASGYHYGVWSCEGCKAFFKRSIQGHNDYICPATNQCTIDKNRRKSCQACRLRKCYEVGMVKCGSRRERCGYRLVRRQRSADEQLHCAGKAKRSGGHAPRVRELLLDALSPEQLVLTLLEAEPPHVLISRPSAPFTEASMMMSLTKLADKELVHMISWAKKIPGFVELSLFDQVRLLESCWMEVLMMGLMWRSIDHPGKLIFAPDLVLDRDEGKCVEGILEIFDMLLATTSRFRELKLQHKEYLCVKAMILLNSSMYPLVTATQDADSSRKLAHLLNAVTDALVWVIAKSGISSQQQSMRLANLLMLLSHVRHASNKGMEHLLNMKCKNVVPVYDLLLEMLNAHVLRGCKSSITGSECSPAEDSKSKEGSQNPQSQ
Chain of 14-3-3 protein gamma (P61981 whole entry): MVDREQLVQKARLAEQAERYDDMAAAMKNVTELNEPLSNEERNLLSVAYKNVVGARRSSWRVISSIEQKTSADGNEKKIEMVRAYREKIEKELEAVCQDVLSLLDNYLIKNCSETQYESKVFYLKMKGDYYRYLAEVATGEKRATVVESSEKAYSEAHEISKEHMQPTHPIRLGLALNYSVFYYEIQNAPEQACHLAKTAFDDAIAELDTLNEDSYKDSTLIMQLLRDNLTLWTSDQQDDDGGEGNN
Chain of RNA-editing ligase 1, mitochondrial (P86926 whole entry): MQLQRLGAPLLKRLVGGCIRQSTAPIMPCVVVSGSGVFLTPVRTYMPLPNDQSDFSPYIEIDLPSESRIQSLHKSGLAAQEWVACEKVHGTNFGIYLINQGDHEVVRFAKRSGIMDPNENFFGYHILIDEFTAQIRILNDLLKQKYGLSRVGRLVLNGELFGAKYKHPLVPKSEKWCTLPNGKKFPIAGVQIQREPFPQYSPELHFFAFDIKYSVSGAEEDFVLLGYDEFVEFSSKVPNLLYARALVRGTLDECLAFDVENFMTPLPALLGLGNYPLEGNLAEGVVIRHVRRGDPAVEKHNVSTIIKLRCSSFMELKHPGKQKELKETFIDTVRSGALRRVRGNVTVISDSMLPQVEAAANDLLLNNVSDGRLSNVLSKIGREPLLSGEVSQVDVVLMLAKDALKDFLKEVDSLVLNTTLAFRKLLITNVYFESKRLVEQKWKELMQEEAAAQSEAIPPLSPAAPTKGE
Chain of Mitogen-activated protein kinase 10 (P53779 whole entry): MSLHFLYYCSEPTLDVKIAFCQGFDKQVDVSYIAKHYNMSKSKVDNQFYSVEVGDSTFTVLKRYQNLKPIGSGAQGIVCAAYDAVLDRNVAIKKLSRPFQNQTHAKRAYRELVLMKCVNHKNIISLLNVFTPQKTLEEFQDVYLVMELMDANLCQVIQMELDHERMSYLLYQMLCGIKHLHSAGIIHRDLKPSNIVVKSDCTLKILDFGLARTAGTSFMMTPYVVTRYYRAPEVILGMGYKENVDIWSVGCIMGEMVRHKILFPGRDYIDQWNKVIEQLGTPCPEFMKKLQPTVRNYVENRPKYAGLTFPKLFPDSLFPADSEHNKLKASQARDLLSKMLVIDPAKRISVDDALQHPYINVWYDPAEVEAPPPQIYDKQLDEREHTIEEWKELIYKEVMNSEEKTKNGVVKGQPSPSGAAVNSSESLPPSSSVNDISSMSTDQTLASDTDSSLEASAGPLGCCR
Chain of Histone-lysine N-methyltransferase NSD2 (O96028 whole entry): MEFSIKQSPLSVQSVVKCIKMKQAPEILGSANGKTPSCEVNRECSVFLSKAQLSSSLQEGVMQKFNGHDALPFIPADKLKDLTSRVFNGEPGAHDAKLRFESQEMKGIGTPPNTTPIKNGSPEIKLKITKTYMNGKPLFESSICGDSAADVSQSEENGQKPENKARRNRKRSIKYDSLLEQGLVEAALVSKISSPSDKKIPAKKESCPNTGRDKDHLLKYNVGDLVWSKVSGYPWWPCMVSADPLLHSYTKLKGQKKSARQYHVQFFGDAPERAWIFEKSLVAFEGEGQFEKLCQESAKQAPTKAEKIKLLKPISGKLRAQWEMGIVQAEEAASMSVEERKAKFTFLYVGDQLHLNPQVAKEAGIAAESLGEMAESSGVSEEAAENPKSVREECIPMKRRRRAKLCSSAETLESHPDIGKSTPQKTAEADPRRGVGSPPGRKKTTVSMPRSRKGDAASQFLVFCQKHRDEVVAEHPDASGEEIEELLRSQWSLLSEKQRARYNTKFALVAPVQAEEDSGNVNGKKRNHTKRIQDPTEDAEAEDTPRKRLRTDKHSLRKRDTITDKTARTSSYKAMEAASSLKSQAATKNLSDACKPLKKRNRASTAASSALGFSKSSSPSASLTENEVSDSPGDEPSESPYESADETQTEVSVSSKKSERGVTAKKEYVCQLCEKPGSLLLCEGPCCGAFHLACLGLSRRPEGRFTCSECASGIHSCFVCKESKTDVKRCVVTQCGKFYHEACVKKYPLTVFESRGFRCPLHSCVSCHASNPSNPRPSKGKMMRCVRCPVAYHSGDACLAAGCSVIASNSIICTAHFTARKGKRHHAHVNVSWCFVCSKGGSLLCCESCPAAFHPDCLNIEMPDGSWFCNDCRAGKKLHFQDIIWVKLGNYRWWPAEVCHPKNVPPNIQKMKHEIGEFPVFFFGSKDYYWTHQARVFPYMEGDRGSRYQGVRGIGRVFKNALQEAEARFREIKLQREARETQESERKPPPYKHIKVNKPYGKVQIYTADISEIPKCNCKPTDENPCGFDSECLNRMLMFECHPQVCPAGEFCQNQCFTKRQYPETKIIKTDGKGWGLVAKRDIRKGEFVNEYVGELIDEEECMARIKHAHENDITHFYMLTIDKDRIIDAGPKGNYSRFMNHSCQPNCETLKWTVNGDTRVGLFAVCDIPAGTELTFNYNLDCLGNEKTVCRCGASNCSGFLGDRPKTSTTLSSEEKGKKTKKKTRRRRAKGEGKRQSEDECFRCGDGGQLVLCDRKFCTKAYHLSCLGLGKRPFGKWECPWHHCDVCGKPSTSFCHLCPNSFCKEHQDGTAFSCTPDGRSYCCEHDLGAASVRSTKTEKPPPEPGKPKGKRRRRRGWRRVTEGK
Chain of NAD-dependent protein deacylase sirtuin-5, mitochondrial (Q9NXA8 whole entry): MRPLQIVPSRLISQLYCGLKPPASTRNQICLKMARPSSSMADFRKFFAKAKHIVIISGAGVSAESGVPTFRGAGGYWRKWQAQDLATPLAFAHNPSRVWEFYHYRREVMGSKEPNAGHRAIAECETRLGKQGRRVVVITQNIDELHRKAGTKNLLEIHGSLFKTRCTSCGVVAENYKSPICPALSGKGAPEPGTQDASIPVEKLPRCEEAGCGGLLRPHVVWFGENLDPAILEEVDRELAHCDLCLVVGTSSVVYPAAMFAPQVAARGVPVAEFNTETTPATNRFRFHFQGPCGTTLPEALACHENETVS

Structure (SMILES): Cc1nnc(NC(=O)c2ccc(S(=O)(=O)N3CCc4ccccc4C3)cc2)o1
IC50 [2]: 80.6 µM (inactive)
IC50 [3]: > 109 µM (inactive)

Structure (SMILES): CN(C)C(=O)c1cccc(-c2ccc([C@H]3[C@H](CO)N4CCCCN(C(=O)C5CCC5)C[C@@H]34)cc2)c1
AC50 [4]: 0.296 µM (active)

Structure (SMILES): C[C@@H]1CN([C@H](C)CO)C(=O)c2cc(N(C)C)ccc2O[C@@H](C)CCCCO[C@H]1CN(C)S(=O)(=O)c1ccc(F)cc1
AC50 [5]: 10.5 µM (active)

Structure (SMILES): CCOC(=O)c1cc2c(=O)n3ccccc3nc2n(CCCOC)/c1=N\C(=O)c1ccncc1
AC50 (cells [8]): 8.47 µM (active)

Structure (SMILES): C[C@H]1CN([C@@H](C)CO)C(=O)c2cc(NC(=O)CCCN(C)C)ccc2O[C@H]1CN(C)Cc1ccc(-c2ccccc2)cc1
AC50 [11]: 44.9 µM (active)

Structure (SMILES): CCCOC(=O)c1ccc(-[n+]2c(-c3ccccc3)cc(-c3ccccc3)cc2-c2ccccc2)cc1.[O-][Cl+3]([O-])([O-])[O-]
AC50 (INS1): 1.82 µM (active)
EC50 [13]: > 60 µM (not active)
EC50 [14]: < 0.1 µM (active)
IC50 [2]: 6.87 µM (active)
IC50 [3]: > 109 µM (inactive)
EC50 (cells [15]): 0.1 µM (active)

Now from value to compound:

AC50 [1]: 3.43 µM (active)
Structure (SMILES): CCOc1ccc2[nH]c3c(NCCN(CC)CC)ncnc3c2c1

IC50 (14-3-3 protein gamma): > 50 µM (not active)
Structure (SMILES): CCOc1ccc2[nH]c(=O)c(CN(CC3COCCO3)C(=O)C3CC3)cc2c1 (stereo unspecified)

IC50 (Estrogen receptor beta [6]): 0.468 µM (not active)
IC50 (Estrogen receptor beta [7]): > 50 µM (not active)
IC50 (Estrogen receptor): > 50 µM (not active)
Structure (SMILES): Cc1occc1-c1nnc(SCc2cc(=O)n3cc(Br)ccc3n2)n1C

IC50 [9]: 55.7 µM (not active)
Structure (SMILES): COC(=O)c1c(-c2cccs2)csc1NC(=O)CN1CCOCC1

IC50 [10]: > 96.6 µM (inactive)
Structure (SMILES): COC(=O)C1=C(C)N(Cc2ccc(C(F)(F)F)cc2)C(NCc2ccccc2C(F)(F)F)=NC1c1ccc(F)cc1 (stereo unspecified)

AC50 [12]: 15.1 µM (active)
Structure (SMILES): Cc1ccc2nc(N3C(=O)C(O)=C(C(=O)c4ccc(C)o4)C3c3ccc(O)cc3)sc2c1 (stereo unspecified)

EC50 (Kallikrein-7): > 7.72 µM (active)
Structure (SMILES): C=C(C)Cn1c2ccc(NC(=O)NCCc3cccs3)cc2c(=O)n1C

— ChEMBL document CHEMBL1201862, “PubChem BioAssay data set” (2004)
